Measurements published in US7109380B2, “Cyclopentenedione antifungal compounds and methods for their use” (The University of Mississippi, priority 2004, dated 2006).
In brackets after ≈: the same amount, converted by molar mass.

Tested on: Azole-susceptible and Azole-resistant Candida albicans Strains
Test: Antifungal activity against azole-susceptible and azole-resistant patient isolates
Type: cell-based
Settings: for IC50 / IC80: Candida albicans; for Activity against fluconazole-resistant C. albicans strains (in words): isolates from patients during fluconazole therapy
Description: Antimicrobial Assay. Susceptibility testing is performed using a modified version of the National Committee for Clinical Laboratory Standards methods. M intracelluare is tested using a modified method of Franzblau, et al. Seventy-two to 96 h prior to the assay, the M intracellulare subculture is prepared by resuspending cells from the surface of the slant in Middlebrook 7H9 broth with OADC enrichment and incubating at 37° C. and 10% CO2. On the day of the assay, prepared samples (dissolved in DMSO) are serially-diluted using 20%/0.9% DMSO/saline and transferred in duplicate to 96 well flat bottom microplates. Candida spp. and C. neoformans inocula are prepared by picking 1–3 colonies from agar plates and resuspending in ˜5 mL 0.9% sterile saline. The absorption of 10011 of the saline suspensions and the M. intracellulare subculture at 630 nm using the EL-340 Biokinetics Reader (Bio-Tek Instruments, Vermont) is compared either the 0.5 McFarland standard of 0.03 (Mi) or standard curves. The microorganisms are diluted in broth [RPMI 1640/2% dextrose/MOPS at pH 7.3 (Cellgro) for Candida spp., Sabouraud Dextrose for C. neoformans, and 5% Alamar Blue™(BioSource International, Camarillo, Calif.) in Middlebrook 7H9 broth with OADC enrichment, pH=7.3 for M. intracellulare to afford final target inocula of: Candida spp.: 1.0×10^4, C. neoformans: 1.0×10^5, and M. intracellulare: 2.0×10^6 after addition to the samples. The microbial inocula are added to the samples to achieve a final volume of 200 μl. Growth (saline only), solvent and blank (media only) controls are included on each test plate. Drug controls [Ciprofloxacin (ICN Biomedicals, Ohio) for bacteria and Amphotericin B (ICN Biomedicals, Ohio) for fungi] are included in each assay. All organisms are read at either 630 nm using the EL-340 Biokinetics Reader (Bio-Tek Instruments, Vermont) or 544ex/590em, (M. intracellulare) using the Polarstar Galaxy Plate Reader (BMG LabTechnologies, Germany) prior to and after incubation: Candida spp. at 37° C. for 18–24 h, C. neoformans at 30° C. for 72 h, and M. intracellulare at 37° C. and 10% CO2 for 72 h. Percent growth is calculated and plotted versus test concentration to afford the IC50 (sample concentration that affords 50% growth of the organism) and the minimum inhibitory concentration (MIC) and minimum fungicidal or bactericidal concentrations (MFC/MBCs). The MIC is defined as the lowest test concentration that allows no detectable growth (for M. intracellulare no color change from blue to pink). Minimum fungicidal or bactericidal concentrations are determined by removing 5 μl from each clear (or blue) well, transferring to agar and incubating as previously mentioned. The MFC/MBC is defined as the lowest test concentration that kills 100% of the organism (allows no growth on agar).
The bioassay method is a modified version of the National Committee for Clinical Laboratory Standards methods, and is same as the one described in example 8 by which the biological data of compounds 1 and 2 (Tables 1 and 2) were obtained, except that the pH of the culture media for Candida spp. was changed from 7.3 to 4.5.

[1] = Isolate 1, azole-susceptible strain (first listing, r6)
[2] = Isolate 1, azole-susceptible strain (second listing, r10)
[3] = Isolate 2, azole-resistant strain
[4] = Isolate 5, azole-resistant strain
[5] = Isolate 8, azole-resistant strain
[6] = Isolate 17, azole-resistant strain

SMILES: COC(/C=C/c1ccccc1)=C1\C(=O)C=C(C)C1=O [Compound 1, coruscanone A]
- IC50 [1]: 0.6 µg/mL (≈ 2.36 µM)
- IC80 [1]: 1 µg/mL (≈ 3.93 µM)
- IC50 [2]: 0.45 µg/mL (≈ 1.77 µM)
- IC80 [2]: 0.6 µg/mL (≈ 2.36 µM)
- IC50 [3]: 0.9 µg/mL (≈ 3.54 µM)
- IC80 [3]: 1 µg/mL (≈ 3.93 µM)
- IC50 [4]: 0.4 µg/mL (≈ 1.57 µM)
- IC80 [4]: 0.6 µg/mL (≈ 2.36 µM)
- IC50 [5]: 0.9 µg/mL (≈ 3.54 µM)
- IC80 [5]: 1 µg/mL (≈ 3.93 µM)
- IC50 [6]: 0.3 µg/mL (≈ 1.18 µM)
- IC80 [6]: 0.9 µg/mL (≈ 3.54 µM)
- IC95 [1]: 1.50 µg/mL (≈ 5.9 µM)
- IC95 [2]: 0.75 µg/mL (≈ 2.95 µM)
- IC95 [3]: 1.50 µg/mL (≈ 5.9 µM)
- IC95 [4]: 0.70 µg/mL (≈ 2.75 µM)
- IC95 [5]: 1.50 µg/mL (≈ 5.9 µM)
- IC95 (Isolate 17, azole-resistant strain, highest test concentration 100 μg/mL): 1.50 µg/mL (≈ 5.9 µM)
- Activity against fluconazole-resistant C. albicans strains (in words): retains equivalent activity relative to the susceptible strains
- Activity against fluconazole-resistant C. albicans strains (in words) (listed as coruscanone A): inhibits
